Paper PMC6897379 (Clinical cancer research : an official journal of the …, 2019)
Like-named read-outs stand apart in the source and are kept apart here.

What was measured:
[1] = system: relapsed/refractory solid tumors or acute leukemia; assay: Phase 2 trial; assay type: in vivo, human
[2] = Phase 2 trial toxicity monitoring; assay type: in vivo, human
[3] = Plasma pharmacokinetics in children and adolescents, with UGT1A1 phenotype; assay type: in vivo, human; conditions: for concentration at 4 day: 80 mg/m^2, Alisertib Cmin Median (range), day 4, I/E, I, P
[4] = Toxicity versus germline AURKA genotype; assay type: in vivo, human
ALL-8 xenograft = assay: ALL-8 xenograft, comparison of dosing schedules; assay type: in vivo, NOD/SCID mice
ALL-19 xenograft = assay: ALL-19 xenograft, comparison of dosing schedules; assay type: in vivo, NOD/SCID mice
[5] = cited from earlier work
[6] = children, cited from earlier work
[7] = system: relapsed or refractory solid tumors; conditions: cited from earlier work
[8] = mice receiving 10 mg/kg; cited from earlier work
NBL xenografts = conditions: PPTP; cited from earlier work
ALL xenografts = conditions: PPTP; cited from earlier work
[9] = system: pediatric solid tumor models; conditions: cited from earlier work
[10] = system: p53-wildtype, therapy-refractory NBL cell lines; conditions: cited from earlier work
[11] = system: atypical teratoid rhabdoid (ATRT) cell lines; conditions: ATRT cell lines that overexpress AAK with SMARCB1 mutations; cited from earlier work
[12] = adults; twice daily for 7 days; DLT neutropenia and stomatitis; cited from earlier work
[13] = Acute Lymphoblastic Leukemia, 10 response evaluable
[14] = Ewing Sarcoma, 10 response evaluable
[15] = Germ Cell Tumor, 7 response evaluable
[16] = Hepatoblastoma, 8 response evaluable
[17] = Neuroblastoma (MIBG Evaluable), 24 response evaluable
[18] = Neuroblastoma (Measurable), 24 response evaluable
[19] = Non-Rhabdo Soft Tissue Sarcoma, 10 response evaluable
[20] = Osteosarcoma, 10 response evaluable
[21] = Rhabdoid Tumors, 4 response evaluable
[22] = Rhabdomyosarcoma, 10 response evaluable
[23] = Total, all strata, 137 response evaluable
[24] = Wilms tumor, 10 response evaluable
[25] = human, in vivo, 1 cycle (21 days)
[26] = Schedule A, 10.4 mg/kg oral gavage twice daily × 7 days
[27] = Schedule A, twice daily × 7 days
[28] = Schedule B, 10.4 mg/kg oral gavage twice daily × 5 days × 3 weeks
[29] = Schedule B, twice daily × 5 days × 3 weeks
[30] = adults, 50 mg enteric coated tablets
[31] = population PK model, 363 adults, 7 single agent trials

Structure (SMILES): COc1cc(Nc2ncc3c(n2)-c2ccc(Cl)cc2C(c2c(F)cccc2OC)=NC3)ccc1C(=O)O [alisertib, Alisertib]
- Non-responders [1, 13]: 1
- Progressive Disease [1, 13]: 6
- Stable Disease n patients [1, 13]: 3 n patients
- Non-responders ([1]; Acute Myeloid Leukemia, 10 response evaluable): 10
- Non-responders [1, 14]: 2
- Progressive Disease [1, 14]: 5
- Stable Disease n patients [1, 14]: 3 n patients
- Non-responders [1, 15]: 1
- Progressive Disease [1, 15]: 4
- Stable Disease n patients [1, 15]: 2 n patients
- Stable Disease cycles administered ([1]; Hepatoblastoma): 5 cycles
- Non-responders [1, 16]: 2
- Progressive Disease [1, 16]: 4
- Stable Disease n patients [1, 16]: 1 n patients
- Stable Disease median (range) cycles administered ([1]; Neuroblastoma (MIBG Evaluable)): 13 (5–35) cycles
- Non-responders [1, 17]: 4
- Progressive Disease [1, 17]: 9
- Stable Disease n patients [1, 17]: 9 n patients
- Non-responders [1, 18]: 5
- Progressive Disease [1, 18]: 16
- Stable Disease n patients [1, 18]: 2 n patients
- Stable Disease cycles administered ([1]; Non-Rhabdo Soft Tissue Sarcoma): 5 cycles
- Non-responders [1, 19]: 2
- Progressive Disease [1, 19]: 7
- Stable Disease n patients [1, 19]: 1 n patients
- Responses in the other primary disease strata ([1]; OS, EWS, RMS, ALL, AML): No responses
- Non-responders [1, 20]: 2
- Progressive Disease [1, 20]: 8
- Non-responders [1, 21]: 1
- Progressive Disease [1, 21]: 3
- Stable Disease cycles administered ([1]; Rhabdomyosarcoma): 15 cycles
- Non-responders [1, 22]: 2
- Progressive Disease [1, 22]: 7
- Stable Disease n patients [1, 22]: 1 n patients
- Non-responders [1, 23]: 33
- Progressive Disease [1, 23]: 76
- Stable Disease n patients [1, 23]: 23 n patients
- Stable Disease cycles administered ([1]; Wilms tumor): 31 cycles
- Non-responders [1, 24]: 1
- Progressive Disease [1, 24]: 7
- Stable Disease n patients [1, 24]: 1 n patients
- Objective responses observed ([1]; all strata, 137 evaluable for response): Five
- Objective response rate ([1]; children and adolescents receiving single agent alisertib): less than 5%
- Dehydration Grade 3 ([2]; alisertib related, all cycles (n=500)): 6 (1.2%) n (%)
- Patients with fatal adverse events possibly related to alisertib ([2]; during cycle 1): two
- ALT increased Grade 3 ([2]; human, in vivo): 17 (3.4%) n (%)
- AST increased Grade 3 ([2]; human, in vivo): 10 (2%) n (%)
- Alisertib-related grade 3 or 4 anemia ([2]; human, in vivo): 13.6%
- Alisertib-related grade 3 or 4 leukopenia ([2]; human, in vivo): 33%
- Alisertib-related grade 3 or 4 lymphopenia ([2]; human, in vivo): 12.2%
- Alisertib-related grade 3 or 4 neutropenia ([2]; human, in vivo): 51.8%
- Alisertib-related grade 3 or 4 thrombocytopenia ([2]; human, in vivo): 20.8%
- Anemia Grade 3 ([2]; human, in vivo): 63 (12.6%) n (%)
- Anemia Grade 4 ([2]; human, in vivo): 5 (1%) n (%)
- Anorexia Grade 3 ([2]; human, in vivo): 1 (0.2%) n (%)
- Depression Grade 4 ([2]; human, in vivo): 1 (0.2%) n (%)
- Diarrhea Grade 3 ([2]; human, in vivo): 2 (0.4%) n (%)
- Dizziness Grade 3 ([2]; human, in vivo): 14 (2.8%) n (%)
- Enterocolitis Grade 3 ([2]; human, in vivo): 1 (0.2%) n (%)
- Febrile neutropenia Grade 3 ([2]; human, in vivo): 18 (3.6%) n (%)
- GGT increased Grade 3 ([2]; human, in vivo): 1 (0.2%) n (%)
- Hepatic hemorrhage Grade 5 ([2]; human, in vivo): 1 (0.2%) n (%)
- Hyperbilirubinemia Grade 3 ([2]; human, in vivo): 3 (0.6%) n (%)
- Hypersomnia Grade 3 ([2]; human, in vivo): 1 (0.2%) n (%)
- Hyperuricemia Grade 4 ([2]; human, in vivo): 1 (0.2%) n (%)
- Hypoalbuminemia Grade 3 ([2]; human, in vivo): 1 (0.2%) n (%)
- Hypocalcemia Grade 3 ([2]; human, in vivo): 1 (0.2%) n (%)
- Hypokalemia Grade 3 ([2]; human, in vivo): 4 (0.8%) n (%)
- Hypokalemia Grade 4 ([2]; human, in vivo): 1 (0.2%) n (%)
- Hyponatremia Grade 3 ([2]; human, in vivo): 3 (0.6%) n (%)
- Hypophosphatemia Grade 3 ([2]; human, in vivo): 1 (0.2%) n (%)
- INR increased Grade 3 ([2]; human, in vivo): 1 (0.2%) n (%)
- Infection Grade 3 ([2]; human, in vivo): 1 (0.2%) n (%)
- Leukopenia Grade 3 ([2]; human, in vivo): 117 (23.4%) n (%)
- Leukopenia Grade 4 ([2]; human, in vivo): 48 (9.6%) n (%)
- Lymphopenia Grade 3 ([2]; human, in vivo): 47 (9.4%) n (%)
- Lymphopenia Grade 4 ([2]; human, in vivo): 14 (2.8%) n (%)
- Nausea Grade 3 ([2]; human, in vivo): 2 (0.4%) n (%)
- Neutropenia Grade 3 ([2]; human, in vivo): 124 (24.8%) n (%)
- Neutropenia Grade 4 ([2]; human, in vivo): 137 (27.4%) n (%)
- Oral mucositis Grade 3 ([2]; human, in vivo): 19 (3.8%) n (%)
- Palmar-plantar erythrodysesthesia Grade 3 ([2]; human, in vivo): 2 (0.4%) n (%)
- Photophobia Grade 3 ([2]; human, in vivo): 1 (0.2%) n (%)
- Pneumonia Grade 3 ([2]; human, in vivo): 1 (0.2%) n (%)
- Respiratory failure Grade 5 ([2]; human, in vivo): 1 (0.2%) n (%)
- Serum amylase increased Grade 3 ([2]; human, in vivo): 1 (0.2%) n (%)
- Thrombocytopenia Grade 3 ([2]; human, in vivo): 54 (10.8%) n (%)
- Thrombocytopenia Grade 4 ([2]; human, in vivo): 50 (10%) n (%)
- Tumor lysis syndrome Grade 4 ([2]; human, in vivo): 1 (0.2%) n (%)
- Urinary tract infection Grade 3 ([2]; human, in vivo): 1 (0.2%) n (%)
- Vomiting Grade 3 ([2]; human, in vivo): 2 (0.4%) n (%)
- Patients who experienced dose limiting toxicity [2, 25]: 18 patients
- Patients who experienced dose limiting toxicity, percent [2, 25]: 13%
- Oral pain Grade 3 ([2]; human, in vivo, po): 5 (1%) n (%)
- Most frequent toxicity ([2]; in vivo): myelosuppression
- Patients exceeding the 1 μM target trough concentration on day 4 ([3]; 26/39 patients): 67%
- Difference in population mean trough concentrations ([3]; IM/PM versus EM, p 0.0091): 1.05 µM
- Patients with Cmin exceeding 1μM on day 7 ([3]; human, in vivo, 7 day): 41%
- concentration at 4 day ([3]; human, plasma, oral, Grade ≥ 2: Yes (n=8)): 1800 nM
- concentration at 4 day ([3]; human, plasma, oral, Grade ≥ 2, No (n=8)): 2220 nM
- concentration at 7 day ([3]; human, plasma, oral, 80 mg/m^2, Median Cmin on day 7, cycle 1): 900 nM
- Difference in population mean trough concentrations ([3]; with versus without ≥ grade 2 toxicities, not statistically significant): 0.08 µM
- Cycle 1 DLT No ([4]; AURKA 91 A>T VV): 8
- Grade 2+ Toxicity Yes ([4]; AURKA 91 A>T VV): 8
- Cycle 1 DLT Yes ([4]; AURKA 91 A>T WV): 5
- Grade 2+ Toxicity No ([4]; AURKA 91 A>T WV): 5
- Cycle 1 DLT Yes ([4]; AURKA 91 A>T WW): 8
- Grade 2+ Toxicity No ([4]; AURKA 91 A>T WW): 9
- Cycle 1 DLT No ([4]; AURKA 169G>A VV): 2
- Grade 2+ Toxicity No ([4]; AURKA 169G>A VV): 1
- Grade 2+ Toxicity Yes ([4]; AURKA 169G>A VV): 1
- Cycle 1 DLT No ([4]; AURKA 169G>A WV): 18
- Cycle 1 DLT Yes ([4]; AURKA 169G>A WV): 3
- Grade 2+ Toxicity No ([4]; AURKA 169G>A WV): 4
- Cycle 1 DLT Yes ([4]; AURKA 169G>A WW): 10
- Grade 2+ Toxicity No ([4]; AURKA 169G>A WW): 9
- Grade 2+ Toxicity Yes ([4]; AURKA 169G>A WW): 54
- Cycle 1 DLT No ([4]; AURKA Haplotype H1): 25
- Cycle 1 DLT Yes ([4]; AURKA Haplotype H1): 5
- Grade 2+ Toxicity No ([4]; AURKA Haplotype H1): 4
- Cycle 1 DLT Yes ([4]; AURKA Haplotype H2): 8
- Grade 2+ Toxicity No ([4]; AURKA Haplotype H2): 10
- Cycle 1 DLT Yes ([4]; Total genotyped patients): 13
- Grade 2+ Toxicity No ([4]; Total genotyped patients): 14
- Objective response (ALL-8 xenograft; Schedule A and Schedule B): neither of the treatment schedules induced an objective response
- Median EFS Treated (ALL-8 xenograft; [26]): 19.8 days
- EFS T-C (ALL-8 xenograft; [27]): 10.9 days
- EFS T/C (ALL-8 xenograft; [27]): 2.2
- Median EFS Treated (ALL-8 xenograft; [28]): 31.9 days
- EFS T-C (ALL-8 xenograft; [29]): 23.0 days
- EFS T/C (ALL-8 xenograft; [29]): 3.6
- Human cells in the bone marrow, lowest levels achieved (ALL-8 xenograft; both alisertib schedules): approximately 20%
- Human cells in the spleen, lowest levels achieved (ALL-8 xenograft; both alisertib schedules): 5–10%
- Additional delay of leukemia progression, Schedule B compared with Schedule A (ALL-8 xenograft; p=0.004): 12.1 days
- Median EFS Treated (ALL-19 xenograft; [26]): 13.6 days
- Leukemia progression compared with controls (ALL-19 xenograft; Schedule A, serial peripheral blood parameters): not significantly different from that of controls
- EFS T-C (ALL-19 xenograft; [27]): 7.0 days
- EFS T/C (ALL-19 xenograft; [27]): 2.0
- Median Response Score (ALL-19 xenograft; [27]): PD2
- Median EFS Treated (ALL-19 xenograft; [28]): 31.2 days
- EFS T-C (ALL-19 xenograft; [29]): 24.6 days
- EFS T/C (ALL-19 xenograft; [29]): 4.7
- Area under concentration time curve (AUC) [5, 30]: 20.9 µM·h
- Steady state trough concentration (Cmin) [5, 30]: exceeding 1 μM
- AUC0–24 h ([5]; patients receiving 50 mg BID): 40 µM·h
- Cmax ([5]; patients receiving 50 mg BID): 1300 nM
- Apparent clearance (CL/F) [5, 31]: 4.25 L/h
- Terminal half-life [5, 31]: 19.3 h
- Average trough concentrations ([5]; recommended phase 2 dose of 50 mg BID for 7 days): exceeded 1 μM
- Trough 24 hours after the first dose ([6]; 80 mg/m^2 dose level): 1.1 µM
- Cmax ([6]; recommended dose 80 mg/m^2): 7500 ± 100 nM
- Duration of stable disease ([7]; 8 children, phase 1 trial): 5–35 cycles
- Children with stable disease ([7]; NBL (n=4) and sarcoma (n=4), of 33 response evaluable children): 8
- Recommended phase 2 dose ([7]; children and adolescents, orally, once daily for 7 days): 80 mg/m^2
- Children with a PR ([7]; hepatoblastoma, of 33 response evaluable children): one
- 12 h level [8]: 1.2 µM
- AUC0–24 h [8]: 39 µM·h
- Cmax [8]: 16000 nM
- Xenografts with maintained complete responses (NBL xenografts): 3 of 7
- Xenografts with maintained complete responses (ALL xenografts): 6 out of 6
- Event free survival ([9]; Wilms tumor, rhabdomyosarcoma and osteosarcoma xenograft models): Statistically significant improvement
- Solid tumor models with objective responses ([9]; pediatric xenograft models): 80%
- Activity in cell lines [10]: active
- Effect on cell lines [11]: induce cell death and augment radiation sensitivity
- Recommended dose [12]: 50 mg
